Like-named read-outs stand apart in the source and are kept apart here.
Legend:
[1] = PAMPA assay (BBB penetration); conditions: for BBB penetration estimation CNS (+/−): class from PAMPA Pe; for Pe ± SEM: PAMPA, PBS pH 7.4, n = 3
Text: Furthermore, we experimentally determined the ability of 12 highlighted hBChE inhibitors to pass through the BBB using a parallel artificial membrane permeation assay (PAMPA) as described by Di et al.[65] […] The methodology was validated on a set of compounds (positive and negative controls) recognized for their activity in the CNS (Table 3).
In this study, it has been used as a non-cell-based in vitro assay carried out in a coated 96-well membrane filter. The filter membrane of the donor plate was coated with PBL (polar brain lipid, Avanti, USA) in dodecane (4 μl of 20 mg ml^−1 PBL in dodecane) and the acceptor well was filled with 300 μl of PBS (pH 7.4; VA). The tested compounds were dissolved first in DMSO and subsequently diluted with PBS (pH 7.4) to final concentrations of 50–100 μM in the donor wells. […] About 300 μL of the donor solution was added to the donor wells (VD) and the donor filter plate was carefully put on the acceptor plate so that the coated membrane was “in touch” with both the donor solution and acceptor buffer. In principle, the test compound diffused from the donor well through the lipid membrane (area = 0.28 cm^2) to the acceptor well. The concentration of the drug in both the donor and acceptor wells was assessed after 3, 4, 5, and 6 h of incubation in quadruplicate using the UV plate reader Spark (Tecan Group Ltd, Switzerland) at the maximum absorption wavelength of each compound. Besides that, a solution of theoretical compound concentration, simulating the equilibrium state established if the membrane were ideally permeable, was prepared and assessed as well. The concentration of the compounds in the donor and acceptor wells and equilibrium concentration were calculated from the standard curve and expressed as the permeability (Pe) according the equation: [drawing 10] where [drawing 11]

[2] = biological target: T1, recombinant BChE (hBChE, E.C. 3.1.1.8) (Homo sapiens, UniProt P06276); assay: biochemical; format: biochemical; conditions: for IC50: mean ± SEM of three independent measurements, each in triplicate; for inhibition at 10 µM: read-out: % inhibition of hBChE ± SEM
T1 construct: purchased Sigma-Aldrich, Prague, Czech Republic
Experimental: The activities of hAChE and hBChE were determined using a modified Ellman's method, as described in ref. [56] and [62] against recombinant AChE (hAChE, E.C. 3.1.1.7) and recombinant BChE (hBChE, E.C. 3.1.1.8), both of which were purchased from Sigma-Aldrich, Prague, Czech Republic. […] The other compounds used, including the phosphate buffer solution (PBS, pH = 7.4), 5,5′-dithio-bis(2-nitrobenzoic) acid (Ellman's reagent, DTNB), acetylthiocholine (ATChI), and butyrylthiocholine (BTChI), were commercially available and purchased from Sigma-Aldrich in Prague, Czech Republic. In brief, the corresponding enzyme (8.3 μL), 5 mM DTNB (283 μL), and the sample dilution in dimethyl sulfoxide (DMSO) at various concentrations (8.3 μL) were added to 96-well microplates (BRAND GMBH + CO KG, Wertheim, Germany) and pre-incubated for 5 minutes in the assay medium. The reaction was initiated by adding 10 mM substrate (ATChI or BTChI, 33.3 μL). […] Each measurement was repeated in triplicate. The percentage of inhibition was calculated using the following formula: [drawing 8] where ΔABl represents the increase in absorbance of the blank sample, and ΔASa represents the increase in absorbance of the measured sample. […] Microsoft Excel (Redmond, WA, USA) and GraphPad Prism version 7 for Windows (GraphPad Software, San Diego, CA, USA) were used for the statistical data evaluation.

[3] = tested at 10 μM compound concentration

T1 sequence (P06276 29-602): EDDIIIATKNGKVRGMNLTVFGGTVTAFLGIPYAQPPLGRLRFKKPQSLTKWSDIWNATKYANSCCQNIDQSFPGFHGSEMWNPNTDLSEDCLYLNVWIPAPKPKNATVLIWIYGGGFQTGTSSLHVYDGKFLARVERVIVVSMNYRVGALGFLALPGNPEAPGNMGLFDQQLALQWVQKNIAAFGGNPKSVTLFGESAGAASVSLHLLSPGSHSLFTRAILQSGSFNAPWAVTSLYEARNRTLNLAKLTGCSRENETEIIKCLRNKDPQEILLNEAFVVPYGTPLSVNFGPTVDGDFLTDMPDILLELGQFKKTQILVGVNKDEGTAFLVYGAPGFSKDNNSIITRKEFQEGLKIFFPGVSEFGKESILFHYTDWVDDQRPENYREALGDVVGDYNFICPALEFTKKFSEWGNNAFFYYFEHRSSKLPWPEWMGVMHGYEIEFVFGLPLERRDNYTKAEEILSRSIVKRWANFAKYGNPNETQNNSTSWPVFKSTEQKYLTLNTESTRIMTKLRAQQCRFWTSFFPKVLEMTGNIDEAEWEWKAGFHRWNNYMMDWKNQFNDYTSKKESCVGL

Structure (SMILES)	BBB penetration estimation CNS (+/−) [1]	IC50 [2] [nM]	inhibition at 10 µM [2, 3] [%]	hBChE inhibitory activity (in words) [2]	Pe ± SEM [1]	inhibition at 10 µM [2] [%]
NS(=O)(=O)c1cc2c(cc1Cl)N=CNS2(=O)=O [Chlorothiazide, reference compound]	CNS − (CNS (−) (low BBB permeation predicted): Pe (×10^−6 cm s^−1) < 2.0)	–	–	–	–	–
COc1cccc(CCNCc2cccc(OCc3ccccc3)c2)c1 [Compound 6, {[3-(Benzyloxy)phenyl]methyl}[2-(3-methoxyphenyl)ethyl]amine]	–	2700 ± 200	78 ± 0.4	–	–	–
COc1ccc(CCNCc2cccc(OCc3ccccc3)c2)cc1 [Compound 7, {[3-(Benzyloxy)phenyl]methyl}[2-(4-methoxyphenyl)ethyl]amine]	–	4800 ± 200	73 ± 0.6	–	–	–
C=CCN(CCc1ccc(O)cc1)Cc1cccc(OCc2ccccc2)c1 [Compound 8, 4-[2-({[3-(Benzyloxy)phenyl]methyl}(prop-2-en-1-yl)amino)ethyl]phenol]	–	600 ± 100	92 ± 0.5	–	–	–
C=CCOc1ccc(CCN(CC=C)Cc2cccc(OCc3ccccc3)c2)cc1 [Compound 9, {[3-(Benzyloxy)phenyl]methyl}(prop-2-en-1-yl){2-[4-(prop-2-en-1-yloxy)phenyl]ethyl}amine]	–	> 10000	46 ± 1.7	complete loss of hBChE inhibitory activity	–	–
C=CCOc1ccc(CCNCc2cccc(OCc3ccccc3)c2)cc1 [Compound 12, {[3-(Benzyloxy)phenyl]methyl}({2-[4-(prop-2-en-1-yloxy)phenyl]ethyl})amine]	–	4000 ± 1000	75.5 ± 0.5	–	–	–
Clc1cccc(NCc2cccc(OCc3ccccc3)c2)c1 [Compound 13, N-{[3-(Benzyloxy)phenyl]methyl}-3-chloroaniline]	–	> 10000	7.5 ± 0.4	completely inactive	–	–
c1ccc(CNCc2cccc(OCc3ccccc3)c2)cc1 [Compound 14, Benzyl({[3-(benzyloxy)phenyl]methyl})amine]	CNS + (CNS (+) (high BBB permeation predicted): Pe (×10^−6 cm s^−1) > 4.0)	500 ± 100	92 ± 0.3	–	9.8 ± 2.9 ×10^−6 cm s^−1	–
COc1ccc(CNCc2cccc(OCc3ccccc3)c2)cc1OC [Compound 15, {[3-(Benzyloxy)phenyl]methyl}[(3,4-dimethoxyphenyl)methyl]amine]	–	> 10000	49 ± 1.4	completely inactive	–	–
c1ccc(CCNCc2cccc(OCc3ccccc3)c2)cc1 [Compound 16, {[3-(Benzyloxy)phenyl]methyl}(2-phenylethyl)amine]	–	600 ± 100	91 ± 0.9	–	–	–
c1ccc(CCCNCc2cccc(OCc3ccccc3)c2)cc1 [Compound 17, {[3-(Benzyloxy)phenyl]methyl}(3-phenylpropyl)amine]	–	600 ± 100	89 ± 1.8	–	–	–
CCN(Cc1ccccc1)Cc1cccc(OCc2ccccc2)c1 [Compound 19, Benzyl({[3-(benzyloxy)phenyl]methyl})ethylamine]	CNS + (CNS (+) (high BBB permeation predicted): Pe (×10^−6 cm s^−1) > 4.0)	500 ± 100	88 ± 1.1	–	36 ± 14 ×10^−6 cm s^−1	–
C=CCN(Cc1ccccc1)Cc1cccc(OCc2ccccc2)c1 [Compound 20, Benzyl({[3-(benzyloxy)phenyl]methyl})(prop-2-en-1-yl)amine]	–	> 10000	36 ± 0.8	–	–	–
CCN(CCc1ccccc1)Cc1cccc(OCc2ccccc2)c1 [Compound 21, {[3-(Benzyloxy)phenyl]methyl}(ethyl)(2-phenylethyl)amine]	CNS + (CNS (+) (high BBB permeation predicted): Pe (×10^−6 cm s^−1) > 4.0)	400 ± 100	91 ± 0.4	–	21.0 ± 0.6 ×10^−6 cm s^−1	–
CCCN(CCc1ccccc1)Cc1cccc(OCc2ccccc2)c1 [Compound 22, {[3-(Benzyloxy)phenyl]methyl}(2-phenylethyl)propylamine]	–	700 ± 100	81 ± 0.8	–	–	–
C=CCN(CCc1ccccc1)Cc1cccc(OCc2ccccc2)c1 [Compound 23, {[3-(Benzyloxy)phenyl]methyl}(2-phenylethyl)(prop-2-en-1-yl)amine]	–	7700 ± 1700	60 ± 0.4	–	–	–
CCN(CCCc1ccccc1)Cc1cccc(OCc2ccccc2)c1 [Compound 24, {[3-(Benzyloxy)phenyl]methyl}(ethyl)(3-phenylpropyl)amine]	–	600 ± 100	94 ± 0.6	–	–	–
CCCN(CCCc1ccccc1)Cc1cccc(OCc2ccccc2)c1 [Compound 25, {[3-(Benzyloxy)phenyl]methyl}(3-phenylpropyl)propylamine]	CNS + (CNS (+) (high BBB permeation predicted): Pe (×10^−6 cm s^−1) > 4.0)	540 ± 30	89 ± 0.8	–	33.0 ± 6.8 ×10^−6 cm s^−1	–
C=CCN(CCCc1ccccc1)Cc1cccc(OCc2ccccc2)c1 [Compound 26, {[3-(Benzyloxy)phenyl]methyl}(3-phenylpropyl)(prop-2-en-1-yl)amine]	–	1200 ± 300	76 ± 1.7	–	–	–
COc1ccccc1CCNCc1ccc(OCc2ccccc2)cc1 [Compound 29, {[4-(Benzyloxy)phenyl]methyl}[2-(2-methoxyphenyl)ethyl]amine]	–	800 ± 200	89 ± 0.9	–	–	–

Structure (SMILES)	BBB penetration estimation CNS (+/−) [1]	IC50 [2] [nM]	inhibition at 10 µM [2, 3] [%]	hBChE inhibitory activity (in words) [2]	Pe ± SEM [1]	inhibition at 10 µM [2] [%]
COc1cccc(CCNCc2ccc(OCc3ccccc3)cc2)c1 [Compound 30, {[4-(Benzyloxy)phenyl]methyl}[2-(3-methoxyphenyl)ethyl]amine]	–	4900 ± 1000	66 ± 0.1	–	–	–
COc1ccc(CCNCc2ccc(OCc3ccccc3)cc2)cc1 [Compound 31, {[4-(Benzyloxy)phenyl]methyl}[2-(4-methoxyphenyl)ethyl]amine]	–	3000 ± 600	93 ± 0.2	–	–	–
Clc1ccc(CCNCc2ccc(OCc3ccccc3)cc2)cc1 [Compound 32, {[4-(Benzyloxy)phenyl]methyl}[2-(4-chlorophenyl)ethyl]amine]	–	700 ± 200	85 ± 1	–	–	–
CCCOc1ccc(CCN(CCC)Cc2ccc(OCc3ccccc3)cc2)cc1 [Compound 34, {[4-(Benzyloxy)phenyl]methyl}[2-(4-propoxyphenyl)ethyl]propylamine]	–	> 10000	30 ± 0.9	complete loss of hBChE inhibitory activity	–	–
c1ccc(CNCc2ccc(OCc3ccccc3)cc2)cc1 [Compound 35, Benzyl({[4-(benzyloxy)phenyl]methyl})amine]	–	2800 ± 600	60 ± 0.1	–	–	–
c1ccc(COc2ccc(CNCc3ccccn3)cc2)cc1 [Compound 36, {[4-(Benzyloxy)phenyl]methyl}[(pyridin-2-yl)methyl]amine]	–	> 10000	18 ± 0.5	–	–	–
c1ccc(CCNCc2ccc(OCc3ccccc3)cc2)cc1 [Compound 37, {[4-(Benzyloxy)phenyl]methyl}(2-phenylethyl)amine]	–	2000 ± 300	81 ± 1.4	–	–	–
c1ccc(COc2ccc(CNCCc3ccccn3)cc2)cc1 [Compound 38, {[4-(Benzyloxy)phenyl]methyl}[2-(pyridin-2-yl)ethyl]amine]	–	> 10000	23 ± 1	–	–	–
c1ccc(CCCNCc2ccc(OCc3ccccc3)cc2)cc1 [Compound 39, {[4-(Benzyloxy)phenyl]methyl}(3-phenylpropyl)amine]	–	700 ± 100	90 ± 0.3	–	–	–
c1ccc(CCCCNCc2ccc(OCc3ccccc3)cc2)cc1 [Compound 40, {[4-(Benzyloxy)phenyl]methyl}(4-phenylbutyl)amine]	–	800 ± 100	85 ± 0.6	–	–	–
CC(CNCc1ccc(OCc2ccccc2)cc1)c1ccccc1 (stereo not shown) [Compound 41, {[4-(Benzyloxy)phenyl]methyl}(2-phenylpropyl)amine]	–	1600 ± 100	88 ± 1	–	–	–
CC(CCc1ccccc1)NCc1ccc(OCc2ccccc2)cc1 (stereo not shown) [Compound 42, {[4-(Benzyloxy)phenyl]methyl}(4-phenylbutan-2-yl)amine]	CNS + (CNS (+) (high BBB permeation predicted): Pe (×10^−6 cm s^−1) > 4.0)	500 ± 100	92 ± 0.5	–	22.0 ± 4.2 ×10^−6 cm s^−1	–
CCN(Cc1ccccc1)Cc1ccc(OCc2ccccc2)cc1 [Compound 43, Benzyl({[4-(benzyloxy)phenyl]methyl})ethylamine]	–	> 10000	50 ± 1.1	–	–	–
CCCN(Cc1ccccc1)Cc1ccc(OCc2ccccc2)cc1 [Compound 44, Benzyl({[4-(benzyloxy)phenyl]methyl})propylamine]	–	> 10000	18 ± 0.3	–	–	–
CCCN(CCCc1ccccc1)Cc1ccc(OCc2ccccc2)cc1 [Compound 45, {[4-(Benzyloxy)phenyl]methyl}(3-phenylpropyl)propylamine]	CNS + (CNS (+) (high BBB permeation predicted): Pe (×10^−6 cm s^−1) > 4.0)	290 ± 40	93 ± 0.8	–	25.0 ± 2.9 ×10^−6 cm s^−1	–
CCN(Cc1ccc(OCc2ccccc2)cc1)C(C)CCc1ccccc1 (stereo not shown) [Compound 46, {[4-(Benzyloxy)phenyl]methyl}(ethyl)(4-phenylbutan-2-yl)amine]	CNS + (CNS (+) (high BBB permeation predicted): Pe (×10^−6 cm s^−1) > 4.0)	500 ± 300	87 ± 1.5	–	36.0 ± 2.0 ×10^−6 cm s^−1	–
CCCN(Cc1ccc(OCc2ccccc2)cc1)C(C)CCc1ccccc1 (stereo not shown) [Compound 47, {[4-(Benzyloxy)phenyl]methyl}(4-phenylbutan-2-yl)propylamine]	–	1000 ± 300	93 ± 0.2	–	–	–
CNC(=O)Oc1ccc2c(c1)[C@]1(C)CCN(C)[C@@H]1N2C [Eserine, reference compound]	–	–	–	–	–	96 ± 0.3
COc1ccc2c3c1O[C@H]1C[C@@H](O)C=C[C@@]31CCN(C)C2 [Galantamine, reference compound]	–	–	–	–	–	29 ± 3.5
Nc1c2c(nc3ccccc13)CCCC2 [Tacrine, reference compound]	CNS + (CNS (+) (high BBB permeation predicted): Pe (×10^−6 cm s^−1) > 4.0)	–	–	–	–	–
